One series has as its target T1, CCR3 receptor (UniProt P51677).
T1 sequence (P51677 1-355): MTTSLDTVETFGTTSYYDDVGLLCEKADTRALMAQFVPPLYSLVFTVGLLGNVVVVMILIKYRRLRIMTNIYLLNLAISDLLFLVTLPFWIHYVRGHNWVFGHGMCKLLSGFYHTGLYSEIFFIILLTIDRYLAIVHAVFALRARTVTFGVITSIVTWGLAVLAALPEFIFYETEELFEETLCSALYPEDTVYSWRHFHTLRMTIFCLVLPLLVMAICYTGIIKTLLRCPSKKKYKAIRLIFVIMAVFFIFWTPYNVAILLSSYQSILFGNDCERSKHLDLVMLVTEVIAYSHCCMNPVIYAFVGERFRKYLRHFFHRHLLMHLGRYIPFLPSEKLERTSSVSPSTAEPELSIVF
The series can be described thus: CCR3 Receptor Binding Assay ([125I]-labeled human eotaxin/CCL11 displacement on cells). Conditions: 0.1 nM [125I]-labeled human eotaxin/CCL11, 60 min at room temperature. The method, then:
Cells were washed once with PBS and resuspended in a binding buffer (25 mM HEPES pH 7.6, 5 mM MgCl2, 1 mM CaCl2, 0.5% BSA, 0.1% NaN3). […] of cell suspension (2×10^5 cells/well) and 0.1 nM [^125I]-labeled human eotaxin/CCL11 (2000 Ci/mmol specific activity) were mixed in a 96-well U-bottom polypropylene plate, and incubated for 60 min at room temperature for the binding reaction. The cell suspension was then transferred to a filtration plate (#MAFB, Millipore), and washed 3 times with the binding buffer containing 0.5 M NaCl, scintillant added, and the radioactivity was counted on a TopCount (Packard). For the determination of non-specific binding, the cell suspension and [^125I]-labeled human eotaxin/CCL11 were incubated in the presence of 500 nM of unlabeled human eotaxin/CCL11. See, lino et al., “Molecular cloning and functional characterization of cynomolgus monkey (Macaca fascicularis) CC chemokine receptor, CCR3,” Cytokine 2002, 19, 276-286.
The biological results are summarized in Table 1, wherein A represents a value no greater than 50 nM, and B represents a value greater than 50 nM but no greater than 500 nM, C represents a value greater than 500 nM but no greater than 5 μM; and D represents a value greater than 5 μM.

The next series addresses T2, hERG channel (Homo sapiens, UniProt Q12809).
T2 construct: purchased Perkin Elmer RBHERGM400UA; host or cells: HEK-293 cells transfected with hERG (membrane preparation)
The series can be described thus: hERG Receptor Binding Assay (125I-BeKm-1, membranes from HEK-293 cells containing transfected hERG channels). Conditions: 1 hr at room temperature; for Ki at 1 h: human, pH 7.2, probe 125I-BeKm-1 (0.1 nM final); for Ki: 125I-BeKm-1 0.1 nM final. The method, then:
Medium throughput screening of compounds for interaction with the human Ether-a-go-go related gene (hERG) was performed by modification of equilibrium dissociation assays using 125I-labelled peptide BeKm-1. BeKm-1, a scorpion toxin from the Central Asian scorpion Buthus eupeus, selectively blocks the hERG channel. Angelo, K., et al., 2003, Pflugers Arch.-Eur. J. Physiol., 447: 55-63; Chiu, P J S, et al., J. Pharmacol. Sci., 2004, 95: 311-319. Isolated membrane preparations from HEK-293 cells containing transfected hERG channels (hERG K+ Channel Membrane Target Systems™; Cat #, RBHERGM400UA) (Perkin Elmer, Boston, Mass.) were suspended in assay buffer A at a final concentration of 1:150 v/v. Compounds for screening, and non-radiolabelled BeKm-1, as well as 125I-BeKm-1 radioligand (Perkin Elmer; Cat #, NEX-412; Specific Activity 2,200 Ci/mmol), were also reconstituted in Buffer A. Assay components were incubated in 96-well, round-bottom polypropylene plates in the following ratio:
25 μl compound at appropriate concentrations
25 μl radiolabelled BeKm-1 at 0.8 nM (final concentration of 0.1 nM)
150 μl membrane preparation
The assay was incubated with shaking for 1 hr at room temperature. Subsequently, the well contents were transferred to 96-well filtration plates (GF/C multiwell plates (MultiScreen™ HTS; Millipore, 290 Concord Road, Billerica, Mass. 01821 USA; Cat# MSFBN6B-XX pre-soaked in 0.3% polyethyleneimine; Acros Organics, NJ; Cat#178571000). Unbound radioactivity was removed and the membranes washed 4 times with ice-cold Buffer B, under vacuum. Plates were air-dried and bound radioactivity counted on a Packard Top-Count NXT™ microplate scintillation and luminescence counter (Packard Instrument Co., Downers Grove, Ill.). Equilibrium dissociation was analyzed and IC50 and/or Ki values were calculated using GraphPad Prism 4™ software (GraphPad Software, San Diego, Calif.).
Assay Buffer A: ([…] (MP Biomedicals, LLC; 29525 Fountain Parkway, Solon Ohio, 441389; Cat #1688449) in water, pH 7.2 with 1M Tris (Fisher Chemicals, Fair Lawn, N.J. 07410; Cat #, BP-1757-500); 100 μM KCl (Fisher Chemicals, Cat #, BP-366-500); 0.1% BSA (Sigma Aldrich, 3050 Spruce Street, St. Louis, Mo. 63103; Cat #, A3059). Assay Buffer B: 20 mM Tris HCl, pH 7.3; 150 mM NaCl (Fisher Chemicals; Cat #, S78449).
The hERG binding assay results are summarized in Table 2, wherein A represents no measured activity (i.e., a value greater than 100 μM), and B represents a value greater than 10 μM but less than 100 μM and C represents a value less than 10 μM.
(In general: hERG is a cardiac potassium channel; its block is linked to QT prolongation.)

T2 sequence (Q12809 whole entry): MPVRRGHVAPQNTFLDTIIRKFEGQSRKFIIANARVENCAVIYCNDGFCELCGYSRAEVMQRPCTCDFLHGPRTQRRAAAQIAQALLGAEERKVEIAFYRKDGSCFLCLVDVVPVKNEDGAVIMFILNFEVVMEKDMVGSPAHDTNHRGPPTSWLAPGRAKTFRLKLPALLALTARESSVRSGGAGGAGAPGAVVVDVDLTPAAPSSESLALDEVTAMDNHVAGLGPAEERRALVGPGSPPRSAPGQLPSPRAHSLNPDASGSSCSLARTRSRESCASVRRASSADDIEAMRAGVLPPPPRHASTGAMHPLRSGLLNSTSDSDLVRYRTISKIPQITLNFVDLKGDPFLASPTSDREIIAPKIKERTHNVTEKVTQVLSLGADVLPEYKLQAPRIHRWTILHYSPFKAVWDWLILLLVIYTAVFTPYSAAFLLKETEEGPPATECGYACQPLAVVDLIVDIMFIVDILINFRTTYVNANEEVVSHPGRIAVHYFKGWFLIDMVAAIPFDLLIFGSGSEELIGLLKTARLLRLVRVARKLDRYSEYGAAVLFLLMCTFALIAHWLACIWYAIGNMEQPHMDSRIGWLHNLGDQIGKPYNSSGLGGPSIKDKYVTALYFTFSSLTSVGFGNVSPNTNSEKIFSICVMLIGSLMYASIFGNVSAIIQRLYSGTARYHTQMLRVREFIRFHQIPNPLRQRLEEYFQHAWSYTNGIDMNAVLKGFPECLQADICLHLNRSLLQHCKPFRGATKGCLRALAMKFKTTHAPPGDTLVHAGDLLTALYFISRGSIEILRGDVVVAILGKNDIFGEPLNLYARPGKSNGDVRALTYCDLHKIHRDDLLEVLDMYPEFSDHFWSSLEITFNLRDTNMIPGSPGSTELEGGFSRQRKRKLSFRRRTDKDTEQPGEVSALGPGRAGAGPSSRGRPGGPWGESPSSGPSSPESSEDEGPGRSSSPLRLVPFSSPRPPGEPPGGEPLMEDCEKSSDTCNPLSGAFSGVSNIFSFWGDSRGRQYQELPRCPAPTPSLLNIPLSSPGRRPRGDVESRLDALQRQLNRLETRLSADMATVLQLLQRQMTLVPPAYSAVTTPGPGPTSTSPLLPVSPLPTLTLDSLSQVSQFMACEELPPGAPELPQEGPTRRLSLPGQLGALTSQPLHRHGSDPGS

In general, Ki refers to a dissociation constant, usually derived from enzyme kinetics or from competition with a known ligand. For `N#Cc1ccc(Oc2cc(Cl)cc(Cl)c2)c(S(=O)(=O)N2CCC(NC(=O)Nc3cccc(F)c3)CC2)c1` [Compound 52], the Ki at CCR3 receptor was 500 to 5000 nM. This molecule registered a Ki at 1 h at hERG channel of over 100 µM.

Turning to `C=CCNC(=O)NC1CCN(S(=O)(=O)c2cc(C#N)ccc2Oc2cc(Cl)cc(Cl)c2)CC1` [Compound 13, 1-allyl-3-(1-(5-cyano-2-(3,5-dichlorophenoxy)phenylsulfonyl)piperidin-4-yl)urea], the Ki at hERG channel was over 100 µM.

As for `N#Cc1ccc(Oc2cc(Cl)cc(Cl)c2)c(S(=O)(=O)N2CCC(NC(=O)c3cccc(F)c3)CC2)c1` [Compound 11, N-(1-(5-cyano-2-(3,5-dichlorophenoxy)phenylsulfonyl)piperidin-4-yl)-3-fluorobenzamide], on hERG channel, the Ki was over 100 µM.

Take `Cc1ccc(C(=O)NC2CCN(S(=O)(=O)c3cc(C#N)ccc3Oc3cc(Cl)cc(Cl)c3)CC2)cc1` [Compound 10, N-(1-(5-cyano-2-(3,5-dichlorophenoxy)phenylsulfonyl)piperidin-4-yl)-4-methylbenzamide]: the Ki at hERG channel is over 100 µM.

For the molecule `Cc1ccc(S(=O)(=O)N2CCC(NS(=O)(=O)c3cc(C#N)ccc3Oc3cc(Cl)cc(Cl)c3)CC2)cc1` [Compound 30, 5-cyano-2-(3,5-dichlorophenoxy)-N-(1-tosylpiperidin-4-yl)benzenesulfonamide], the Ki on CCR3 receptor was 50 to 500 nM; at hERG channel it was over 100 µM.

For the molecule `N#Cc1ccc(Oc2cc(Cl)cc(Cl)c2)c(S(=O)(=O)N2CCC(NC(=O)CCCCl)CC2)c1` [Compound 8, 4-chloro-N-(1-(5-cyano-2-(3,5-dichlorophenoxy)phenylsulfonyl)piperidin-4-yl)butanamide], on hERG channel, the Ki was over 100 µM.

Take `CC(=O)N1CCC(NS(=O)(=O)c2cc(C#N)ccc2Oc2cc(Cl)cc(Cl)c2)CC1` [Compound 38]: the Ki at CCR3 receptor fell in the range of 50 to 500 nM. This molecule showed a Ki at 1 h at hERG channel of over 100 µM.

`CSCCCNC(=S)NC1CCN(S(=O)(=O)c2cc(C#N)ccc2Oc2cc(Cl)cc(Cl)c2)CC1` [Compound 18, 1-(1-(5-cyano-2-(3,5-dichlorophenoxy)phenylsulfonyl)piperidin-4-yl)-3-(3-(methylthio)propyl)thiourea] yielded an inhibition constant (Ki) on hERG channel of over 100 µM.

`CS(=O)(=O)N1CCC(NS(=O)(=O)c2cc(C#N)ccc2Oc2cc(Cl)cc(Cl)c2)CC1` [Compound 33] yielded a Ki on CCR3 receptor of 50 to 500 nM. The same molecule gave a Ki at 1 h on hERG channel of over 100 µM.

For the molecule `N#Cc1ccc(Oc2cc(Cl)cc(Cl)c2)c(S(=O)(=O)N2CCC(NS(=O)(=O)c3cccc(F)c3)CC2)c1` [Compound 25, N-(1-(5-cyano-2-(3,5-dichlorophenoxy)phenylsulfonyl)piperidin-4-yl)-3-fluorobenzenesulfonamide], the Ki on CCR3 receptor was 50 to 500 nM; at hERG channel, over 100 µM.

At hERG channel, `CC(=O)NC1CCN(S(=O)(=O)c2cc(C#N)ccc2Oc2cc(Cl)cc(Cl)c2)CC1` [Compound 5, N-(1-(5-cyano-2-(3,5-dichlorophenoxy)phenylsulfonyl)piperidin-4-yl)acetamide] displayed a Ki of over 100 µM.

For `CC(C)(C)OC(=O)N1CCC(NS(=O)(=O)c2cc(C#N)ccc2Oc2cc(Cl)cc(Cl)c2)CC1` [Compound 2], the Ki on CCR3 receptor was over 5000 nM. At hERG channel, this molecule yielded a Ki at 1 h of over 100 µM.

Molecule `CC(C)NC(=S)NC1CCN(S(=O)(=O)c2cc(C#N)ccc2Oc2cc(Cl)cc(Cl)c2)CC1` [Compound 17, 1-(1-(5-cyano-2-(3,5-dichlorophenoxy)phenylsulfonyl)piperidin-4-yl)-3-isopropylthiourea] had a Ki at hERG channel of over 100 µM.

`CC(C)NC(=S)N1CCC(NS(=O)(=O)c2cc(C#N)ccc2Oc2cc(Cl)cc(Cl)c2)CC1` [Compound 36] showed a Ki at CCR3 receptor of 50 to 500 nM. The same molecule displayed a Ki at 1 h at hERG channel of 10 to 100 µM.

With `CC(C)NC(=O)NC1CCN(S(=O)(=O)c2cc(C#N)ccc2Oc2cc(Cl)cc(Cl)c2)CC1` [Compound 12, 1-(1-(5-cyano-2-(3,5-dichlorophenoxy)phenylsulfonyl)piperidin-4-yl)-3-isopropylurea], the Ki at hERG channel was over 100 µM.

Turning to `N#Cc1ccc(Oc2cc(Cl)cc(Cl)c2)c(S(=O)(=O)N2CCC(NC(=O)NCc3ccco3)CC2)c1` [Compound 16, 1-(1-(5-cyano-2-(3,5-dichlorophenoxy)phenylsulfonyl)piperidin-4-yl)-3-(furan-2-ylmethyl)urea], the Ki on hERG channel was over 100 µM.

Regarding `N#Cc1ccc(Oc2cc(Cl)cc(Cl)c2)c(S(=O)(=O)N2CCC(NC(=O)NCCN3CCCCC3)CC2)c1` [Compound 48, 1-(1-(5-cyano-2-(3,5-dichlorophenoxy)phenylsulfonyl)piperidin-4-yl)-3-(2-(piperidin-1-yl)ethyl)urea], the Ki at CCR3 receptor was at most 50 nM.

For the origin of these results see US8741894B2, “Arylsulfonamide CCR3 antagonists” (Axikin Pharmaceuticals, Inc., priority 2010, dated 2014).
